The source of these data is patent US4377687A, “Analogs of 1-(2-chloroethyl)-1-nitroso-3-(cycloheyl)-urea substituted by heterocyclic rings or alkyl radicals” (Stiftung Deutsches Krebsforschungszentrum, priority 1978, dated 1983).

Where a name gives a salt, the structure may show the parent alone. Read-outs that look alike come from different tables or passages of the source.

The nature of data set [1]: Mean animal weight / weight gain after tumor transplantation. The following applies: CP 70 (exp. 1-3), BCNU 25, MeCCNU 45 (exp. 1), picolyl-3-CNU 25, its HCl 25 (exp. 2), morpholino-CNU 28, piperidino-CNU 15 (exp. 3), dimethylmorpholino-CNU 45 mg/kg (exp. 4); for Mean animal weight on day 50: day 50 after tumor transplantation; for Mean animal weight on day 100: day 100 after tumor transplantation. It is filed as in vivo, rat (Sprague-Dawley rats). The protocol: (§1) Male Sprague-Dawley rats were used in the experiments. Yoshida sarcome in ascites form was maintained in the same strain of rats by serial intraperitoneal injection of 0,5 ml of ascites fluid.
(§2) 3×10^6 cells were injected into the colon wall in a manner known per se. The chemotherapeutic treatment was carried out on the eighth day after implantation of the tumor cells.
(§3) Water-insoluble compounds were dissolved in Cremophor EL/ethanol/physiological saline (20:20:60: vol.%). Water-soluble substances were dissolved in physiological saline. Cremophor EL is a surfactant on the basis of polyethoxylated castor oil. All test compounds were administered introperitoneally. The nitrosoureas were applied at approximately equitoxic doses corresponding to about 80% of the acute LD50 values observed in healthy rats of the same strain over a 28-day observation period.
In all treated animals and at all doses tested the mean weight gain was lower than in the controls. Table 3 gives the mean animal weights measured 50 and 100 days after tumor transplantation in experiments 1 to 5.

Data set [2] relates to Yoshida sarcoma. The following applies: previous experiments; i.p.; cited from earlier work.
For data set [3], the system named is Yoshida sarcoma. The class given is in vivo, rat (male Sprague-Dawley rats). The note with it: for increase in tumor-free animals (cures) above controls: CP (exp. 1-3), BCNU, MeCCNU 45, dimethylmorpholine-CNU 45, piperidino-CNU 15, picolyl-3-CNU.HCl 25 mg/kg. As for the experimental part:
The chemotherapeutic activity of nitrosoureas was compared in antitumor tests using Yoshida sarcoma ascited cells implanted into the wall of the descending colon in Sprague-Dawley rats.
as §1, §2, §3
Each experiment involved an untreated control group and a varying number of treated groups. Individual survival times were counted as days after tumor inoculation. At the time of death a record of whether an animal was tumor-free or not was made. All animals alive 120 days after tumor inoculation were killed. Animals that according to macroscopic examination had no tumor at the end of the experiment were considered as cured. Since in a number of control rats also no tumors occurred after 120 days the differences in cures between controls and treated animals rather than absolute numbers are reported. Differences in survival were evaluated statistically by individual comparisons between treated rats and controls using a nonparametric log-rank test (Kalbfleisch and Prentice, The statistical analysis of failure time data, Wiley, New York, 1979). Numerical evaluation was performed using a computerized system.

The nature of data set [4]: Water solubility.
Data set [5] relates to rat leukemia L 5222. Briefly: Chemotherapeutic activity against rat Leukemia L5222. The class given is in vivo, rat (BD IX rats). The protocol: Chemotherapeutic activity of methylformylamino-CNU against rat Leukemia L5222 (CNU=chloroethyl-nitroso-urea)
The compound to be tested was solved in Chremophor EL/ethanol/physiological saline and a single dose was administered intraperitoneally into tumor inoculated BD IX rats. The experiment involved an untreated control group and a number of treated groups. The doses used and the effects of the praeterminal treatment are summarized in the following Table from which the cures (animals free of tumor after 120 days) and the increase in life span (ILS, expressed as percentage of survival of the treated test group to the untreated control group) are evident.
Considering the fact that the true measure of the effectiveness of a drug against a neoplastic desease is the ability of the drug to kill the neoplastic cells at dosages that are not toxic to the host animal and that a quantitative evaluation of drug action is usually obtained by using the L1210 leucemia system in mice, it will be realized that in this test the tumor cells are injected into the peritoneal cavity of a mouse which thereafter is treated with the drug to be tested at a very early time after the inoculation of the tumor, i.e. at the first or second day after tumor inoculation. Thus such screening is done under very favourable test conditions for the drug. Contrary thereto the administration of the drug to be tested is performed relatively late in the case of the rat leucemia L5222, i.e. at the 8th day after tumor inoculation. It must, therefore, be taken that at that time tumor cells have colonized the cerebral region, i.e. the meninges, so that cures can only be obtained if the drug has an activity high enough to kill the leucemia cells in the cerebral region in a praeterminal state. Thus by far more severe test conditions are involved when treating rat leucemia L5222 or type Yoshida sarcoma which is a tumor model and which are hard to influence by known drugs.

Setting [6] is: Experiment 1, CP 70, BCNU 25, MeCCNU 45 mg/kg.
[7] abbreviates: Experiment 1, CP 70, BCNU 25, MeCCNU 45 mg/kg, initial animals CP 30, BCNU 30, MeCCNU 29.
The mark [8] stands for this setting: Experiment 1, i.p. day 8, CP 70, BCNU 25, MeCCNU 45 mg/kg.
Where [9] appears, read: Experiment 2, CP 70, picolyl-3-CNU 25, picolyl-3-CNU.HCl 25 mg/kg.
[10] abbreviates: Experiment 2, CP 70, picolyl-3-CNU 25, picolyl-3-CNU.HCl 25 mg/kg, 30 initial animals each.
The mark [11] stands for this setting: Experiment 2, i.p. day 8, CP 70, picolyl-3-CNU 25, picolyl-3-CNU.HCl 25 mg/kg.
The mark [12] stands for this setting: Experiment 5, CP 70, picolyl-3-CNU.HCl 25, morpholino-CNU 28, piperidino-CNU 15 mg/kg.
[13] abbreviates: Experiment 5, CP 70, picolyl-3-CNU.HCl 25, morpholino-CNU 28, piperidino-CNU 15 mg/kg, 15 initial animals (picolyl-3-CNU.HCl 14).
Where [14] appears, read: single i.p. dose printed 279 mg/kg.

As to `O=NN(CCCl)C(=O)NCCCl` [BCNU, 1,3-bis-(2-chloroethyl)-1-nitrosourea], in data set [1], the “Mean animal weight on day 50” value was determined as 270 g and the “Mean animal weight on day 100” value turned out to be 300 g. Further, the “activity against Yoshida sarcoma, shown previously (in words)” value in data set [2] is reported as “active”. For the same compound, in data set [3] (120 days), the “tumor-free animals at the end of the experiment (in words)” value is “increased the rate of tumor-free animals alive at the end of the experiment” and the “increase in tumor-free animals (cures) above controls” value is given as 18%. For the same compound, in data set [3] (setting [6]), the “D1-120 = difference (%) between tf1-120 of treated and untreated animals” value is on record as 22%; the “D120 = difference (%) between tf120 of treated and untreated animals” value (“D120 = difference (%) between tf120” for short) turned out to be 18%; the “tf1-120 (%) (tf120 + animals dying of toxicity)” value (“tf1-120 (%)” below) is recorded as 47%; the “tf120 (%) (animals surviving day 120 without tumor)” value was 43%. In data set [3] (setting [7]), the “tf1-120, No. (tf120 + animals dying of toxicity)” value was 14 and the “tf120, No. (animals surviving day 120 without tumor)” value was 13. Also, in data set [3] (setting [8]), the “% M (median survival time, untreated control = 100)” value came out at 160% and the “M = median survival time” value is 74 days.

Take `O=NN(CCCl)C(=O)NCc1cccnc1` [Picolyl-3-CNU, 1-(2-chloroethyl)-1-nitroso-3-(methylene-3-pyridyl)-urea]: in data set [1], the “Mean animal weight on day 50” value is on record as 250 g and the “Mean animal weight on day 100” value turned out to be 250 g. Further, the “water solubility (in words)” value in data set [4] was “water-insoluble”. Also, in data set [3] (setting [9]), the “% M (median survival time, untreated control = 100)” value came to 130%; the “D1-120 = difference (%) between tf1-120 of treated and untreated animals” value is 1%; the “D120 = difference (%) between tf120” value was -2%; the “tf1-120 (%)” value turned out to be 23%. Besides, the “tf120 (%) (animals surviving day 120 without tumor)” value in data set [3] (setting [9]) is on record as 20%. In data set [3] (setting [10]), the “tf1-120, No. (tf120 + animals dying of toxicity)” value was determined as 7 and the “tf120, No. (animals surviving day 120 without tumor)” value is reported as 6. The “M = median survival time” value in data set [3] (setting [11]) is reported as 28 days.

Turning to `O=NN(CCCl)C(=O)NCc1cccnc1` [Picolyl-3-CNU.HCl, [1-(2-chloroethyl)-1-nitroso-3-(methylene-3-pyridilium)-ureido]-chloride], in data set [1], the “Mean animal weight on day 50” value was determined as 250 g and the “Mean animal weight on day 100” value was found to be 260 g. In addition, the “increase in tumor-free animals (cures) above controls” value in data set [3] (120 days) stood at 15%. Further, in data set [3] (setting [9]), the “% M (median survival time, untreated control = 100)” value is 125%; the “D1-120 = difference (%) between tf1-120 of treated and untreated animals” value is 18%; the “D120 = difference (%) between tf120” value is on record as 15%; the “tf1-120 (%)” value is reported as 40%. For the same compound, the “tf120 (%) (animals surviving day 120 without tumor)” value in data set [3] (setting [9]) came out at 37%. In data set [3] (setting [10]), the “tf1-120, No. (tf120 + animals dying of toxicity)” value is listed as 12 and the “tf120, No. (animals surviving day 120 without tumor)” value is recorded as 11. In addition, the “M = median survival time” value in data set [3] (setting [11]) is 27 days. Also, in data set [3] (setting [12]), the “% M (median survival time, untreated control = 100)” value worked out at 150%; the “D1-120 = difference (%) between tf1-120 of treated and untreated animals” value was found to be 0%; the “D120 = difference (%) between tf120” value is 0%. Moreover, in data set [3] (setting [13]), the “tf1-120, No. (tf120 + animals dying of toxicity)” value is given as 0 and the “tf120, No. (animals surviving day 120 without tumor)” value was found to be 0. Besides, in data set [3] (Experiment 5, i.p. day 8, CP 70, picolyl-3-CNU.HCl 25, morpholino-CNU 28, piperidino-CNU 15 mg/kg), the “M = median survival time” value came to 15 days. Further, the “effect on survival time / life expectancy (in words)” value in data set [3] (experiments 1-4, MeCCNU 45, morpholino-CNU 28 (exp. 3 and 5), dimethylmorpholine-CNU 45, piperidino-CNU 15, picolyl-3-CNU 25, picolyl-3-CNU.HCl 25 mg/kg) is recorded as “without resulting in a significant increase in survival”.

`CN(C=O)NC(=O)N(CCCl)N=O` [methylformylamino-CNU, 1-(2-chloroethyl)-1-nitroso-3-(methyl-formyl-amino)urea]: the “effectiveness in rat leukemia L 5222 (in words)” value in data set [5] (rat, in vivo) is given as “active”. The “ILS (increase in life span)” value in data set [5] (single i.p. dose 7 mg/kg) turned out to be 70%; in data set [5] (single i.p. dose 70 mg/kg), 610%; in data set [5] (single i.p. dose 88 mg/kg), 230%; in data set [5] (single i.p. dose 111 mg/kg), 250%; in data set [5] (single i.p. dose 176 mg/kg) it was 40%; in data set [5] (single i.p. dose 11,1 mg/kg), 100%. In addition, the “ILS (increase in life span)” value was determined as 150% in data set [5] (single i.p. dose 17,6 mg/kg), 150% in data set [5] (single i.p. dose 44,2 mg/kg) and 175% in data set [5] (setting [14]). Moreover, the “cures (animals free of tumor after 120 days)” value in data set [5] (single i.p. dose 7 mg/kg, 7 mg/kg) was 3/8 and three cured animals out of eight; in data set [5] (single i.p. dose 70 mg/kg), 3/9; in data set [5] (single i.p. dose 88 mg/kg), 2/6; in data set [5] (single i.p. dose 11,1 mg/kg), 2/8; in data set [5] (single i.p. dose 17,6 mg/kg), 2/8; in data set [5] (single i.p. dose 44,2 mg/kg) it was 2/8. The “cures (animals free of tumor after 120 days)” value in data set [5] (setting [14]) was 3/8.
